Measurements as given in PubChem BioAssay (NCI).
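The compound was tested at five concentrations on cells cultured in 96-well plates, with a 48-hour exposure period. The concentration for 50% growth inhibition is given as GI50. At the TGI there is no net growth.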

Experiments:
Test in all cases: NCI anticancer screen, dose series, 48 h
M14 melanoma = test system: M14 melanoma
UACC-62 melanoma = test system: UACC-62 melanoma
SF-539 CNS = test system: SF-539 CNS
A498 renal = test system: A498 renal
SW-620 colon = test system: SW-620 colon
SNB-19 CNS = test system: SNB-19 CNS
HCT-15 colon = test system: HCT-15 colon
SK-MEL-28 melanoma = test system: SK-MEL-28 melanoma
HL-60(TB) leukemia = test system: HL-60(TB) leukemia
RXF 393 renal = test system: RXF 393 renal
SF-268 CNS = test system: SF-268 CNS
CAKI-1 renal = test system: CAKI-1 renal
OVCAR-3 ovarian = test system: OVCAR-3 ovarian
OVCAR-5 ovarian = test system: OVCAR-5 ovarian
T-47D breast = test system: T-47D breast
UACC-257 melanoma = test system: UACC-257 melanoma
A549 NSCLC = test system: A549 NSCLC
ACHN renal = test system: ACHN renal
CCRF-CEM leukemia = test system: CCRF-CEM leukemia
BT-549 breast = test system: BT-549 breast
EKVX NSCLC = test system: EKVX NSCLC
786-0 renal = test system: 786-0 renal
TK-10 renal = test system: TK-10 renal
HS 578T breast = test system: HS 578T breast
SK-MEL-2 melanoma = test system: SK-MEL-2 melanoma
IGROV1 ovarian = test system: IGROV1 ovarian
OVCAR-4 ovarian = test system: OVCAR-4 ovarian
NCI/ADR-RES ovarian = test system: NCI/ADR-RES ovarian
KM12 colon = test system: KM12 colon
NCI-H460 lung = test system: NCI-H460 lung
MDA-MB-435 = test system: MDA-MB-435
MCF7 breast = test system: MCF7 breast
MDA-MB-231 breast = test system: MDA-MB-231 breast
OVCAR-8 ovarian = test system: OVCAR-8 ovarian
NCI-H23 lung = test system: NCI-H23 lung
COLO 205 colon = test system: COLO 205 colon
DU-145 prostate = test system: DU-145 prostate
PC-3 prostate = test system: PC-3 prostate
NCI-H522 lung = test system: NCI-H522 lung
HCC-2998 colon = test system: HCC-2998 colon
LOX IMVI melanoma = test system: LOX IMVI melanoma
NCI-H226 lung = test system: NCI-H226 lung
SN12C renal = test system: SN12C renal
SK-OV-3 ovarian = test system: SK-OV-3 ovarian
UO-31 renal = test system: UO-31 renal
HT29 colon = test system: HT29 colon
HCT-116 colon = test system: HCT-116 colon
K-562 leukemia = test system: K-562 leukemia
SK-MEL-5 melanoma = test system: SK-MEL-5 melanoma
U251 CNS = test system: U251 CNS
HOP-92 NSCLC = test system: HOP-92 NSCLC
HOP-62 NSCLC = test system: HOP-62 NSCLC
SF-295 CNS = test system: SF-295 CNS
MOLT-4 leukemia = test system: MOLT-4 leukemia
RPMI-8226 leukemia = test system: RPMI-8226 leukemia
SNB-75 CNS = test system: SNB-75 CNS

`CC1=NN(C2=NS(=O)(=O)c3ccccc3N2C)C(=O)C1` gave a TGI (M14 melanoma) greater than 100 µM, a TGI (UACC-62 melanoma) greater than 100 µM and a TGI (SF-539 CNS) greater than 100 µM. The TGI (A498 renal) was greater than 100 µM, the TGI (SW-620 colon) was greater than 100 µM and the TGI (SNB-19 CNS) was greater than 100 µM. The TGI (HCT-15 colon) was greater than 100 µM, the TGI (SK-MEL-28 melanoma) was greater than 100 µM and the TGI (HL-60(TB) leukemia) was greater than 100 µM. For the same molecule, the TGI (RXF 393 renal) was greater than 100 µM, the TGI (SF-268 CNS) was greater than 100 µM and the TGI (CAKI-1 renal) was greater than 100 µM. For the same molecule, the TGI (OVCAR-3 ovarian) was greater than 100 µM, the TGI (OVCAR-5 ovarian) was greater than 100 µM and the TGI (T-47D breast) was greater than 100 µM. The TGI (UACC-257 melanoma) was greater than 100 µM, the TGI (A549 NSCLC) was greater than 100 µM and the TGI (ACHN renal) was greater than 100 µM. The TGI (CCRF-CEM leukemia) was greater than 100 µM, the TGI (BT-549 breast) was greater than 100 µM and the TGI (EKVX NSCLC) was greater than 100 µM. For the same molecule, the TGI (786-0 renal) was greater than 100 µM, the TGI (TK-10 renal) was greater than 100 µM and the TGI (HS 578T breast) was greater than 100 µM. For the same molecule, the TGI (SK-MEL-2 melanoma) was greater than 100 µM, the TGI (IGROV1 ovarian) was greater than 100 µM and the TGI (OVCAR-4 ovarian) was greater than 100 µM. It also gave a TGI (NCI/ADR-RES ovarian) greater than 100 µM, a TGI (KM12 colon) greater than 100 µM and a TGI (NCI-H460 lung) greater than 100 µM. For the same molecule, the TGI (MDA-MB-435) was greater than 100 µM, the TGI (MCF7 breast) was greater than 100 µM and the TGI (MDA-MB-231 breast) was greater than 100 µM. For the same molecule, the TGI (OVCAR-8 ovarian) was greater than 100 µM, the TGI (NCI-H23 lung) was greater than 100 µM and the TGI (COLO 205 colon) was greater than 100 µM. It also gave a TGI (DU-145 prostate) greater than 100 µM, a TGI (PC-3 prostate) greater than 100 µM and a TGI (NCI-H522 lung) greater than 100 µM. For the same molecule, the TGI (HCC-2998 colon) was greater than 100 µM, the TGI (LOX IMVI melanoma) was greater than 100 µM and the TGI (NCI-H226 lung) was greater than 100 µM. For the same molecule, the TGI (SN12C renal) was greater than 100 µM, the TGI (SK-OV-3 ovarian) was greater than 100 µM and the TGI (UO-31 renal) was greater than 100 µM. It also gave a TGI (HT29 colon) greater than 100 µM, a TGI (HCT-116 colon) greater than 100 µM and a TGI (K-562 leukemia) greater than 100 µM. The TGI (SK-MEL-5 melanoma) was greater than 100 µM, the TGI (U251 CNS) was greater than 100 µM and the TGI (HOP-92 NSCLC) was greater than 100 µM. It also gave a TGI (HOP-62 NSCLC) greater than 100 µM, a TGI (SF-295 CNS) greater than 100 µM and a TGI (MOLT-4 leukemia) greater than 100 µM.

`c1ccc(N2CCN(CN3CCN(c4ccccc4)C3)C2)cc1` showed a GI50 (M14 melanoma) greater than 100 µM, a TGI (M14 melanoma) greater than 100 µM and a GI50 (UACC-62 melanoma) greater than 100 µM. For the same molecule, the TGI (UACC-62 melanoma) was greater than 100 µM, the GI50 (SF-539 CNS) was greater than 100 µM and the TGI (SF-539 CNS) was greater than 100 µM. The GI50 (A498 renal) was 37.2 µM, the TGI (A498 renal) was greater than 100 µM and the GI50 (SW-620 colon) was 60.7 µM. The TGI (SW-620 colon) was greater than 100 µM, the GI50 (SNB-19 CNS) was greater than 100 µM and the TGI (SNB-19 CNS) was greater than 100 µM. For the same molecule, the GI50 (HCT-15 colon) was greater than 100 µM, the TGI (HCT-15 colon) was greater than 100 µM and the GI50 (SK-MEL-28 melanoma) was greater than 100 µM. For the same molecule, the TGI (SK-MEL-28 melanoma) was greater than 100 µM, the GI50 (RPMI-8226 leukemia) was 60.9 µM and the TGI (RPMI-8226 leukemia) was greater than 100 µM. For the same molecule, the GI50 (RXF 393 renal) was greater than 100 µM, the TGI (RXF 393 renal) was greater than 100 µM and the GI50 (SF-268 CNS) was greater than 100 µM. It also gave a TGI (SF-268 CNS) greater than 100 µM, a GI50 (CAKI-1 renal) greater than 100 µM and a TGI (CAKI-1 renal) greater than 100 µM. The GI50 (OVCAR-3 ovarian) was greater than 100 µM, the TGI (OVCAR-3 ovarian) was greater than 100 µM and the GI50 (OVCAR-5 ovarian) was greater than 100 µM. The TGI (OVCAR-5 ovarian) was greater than 100 µM, the GI50 (T-47D breast) was greater than 100 µM and the TGI (T-47D breast) was greater than 100 µM. The GI50 (UACC-257 melanoma) was greater than 100 µM, the TGI (UACC-257 melanoma) was greater than 100 µM and the GI50 (A549 NSCLC) was greater than 100 µM. It also gave a TGI (A549 NSCLC) greater than 100 µM, a GI50 (SNB-75 CNS) greater than 100 µM and a TGI (SNB-75 CNS) greater than 100 µM. It also gave a GI50 (ACHN renal) of 54 µM, a TGI (ACHN renal) greater than 100 µM and a GI50 (CCRF-CEM leukemia) of 42 µM. For the same molecule, the TGI (CCRF-CEM leukemia) was greater than 100 µM, the GI50 (BT-549 breast) was greater than 100 µM and the TGI (BT-549 breast) was greater than 100 µM. It also gave a GI50 (EKVX NSCLC) greater than 100 µM, a TGI (EKVX NSCLC) greater than 100 µM and a GI50 (786-0 renal) greater than 100 µM. It also gave a TGI (786-0 renal) greater than 100 µM, a GI50 (HS 578T breast) greater than 100 µM and a TGI (HS 578T breast) greater than 100 µM. It also gave a GI50 (SK-MEL-2 melanoma) greater than 100 µM, a TGI (SK-MEL-2 melanoma) greater than 100 µM and a GI50 (IGROV1 ovarian) of 25.5 µM. The TGI (IGROV1 ovarian) was greater than 100 µM, the GI50 (OVCAR-4 ovarian) was greater than 100 µM and the TGI (OVCAR-4 ovarian) was greater than 100 µM. The GI50 (NCI/ADR-RES ovarian) was greater than 100 µM, the TGI (NCI/ADR-RES ovarian) was greater than 100 µM and the GI50 (KM12 colon) was greater than 100 µM. For the same molecule, the TGI (KM12 colon) was greater than 100 µM, the GI50 (NCI-H460 lung) was greater than 100 µM and the TGI (NCI-H460 lung) was greater than 100 µM. For the same molecule, the GI50 (MDA-MB-435) was greater than 100 µM, the TGI (MDA-MB-435) was greater than 100 µM and the GI50 (MCF7 breast) was greater than 100 µM. The TGI (MCF7 breast) was greater than 100 µM, the GI50 (MDA-MB-231 breast) was greater than 100 µM and the TGI (MDA-MB-231 breast) was greater than 100 µM. The GI50 (OVCAR-8 ovarian) was greater than 100 µM, the TGI (OVCAR-8 ovarian) was greater than 100 µM and the GI50 (NCI-H23 lung) was greater than 100 µM. It also gave a TGI (NCI-H23 lung) greater than 100 µM, a GI50 (COLO 205 colon) greater than 100 µM and a TGI (COLO 205 colon) greater than 100 µM. The GI50 (DU-145 prostate) was greater than 100 µM, the TGI (DU-145 prostate) was greater than 100 µM and the GI50 (PC-3 prostate) was greater than 100 µM. The TGI (PC-3 prostate) was greater than 100 µM, the GI50 (NCI-H522 lung) was greater than 100 µM and the TGI (NCI-H522 lung) was greater than 100 µM. For the same molecule, the GI50 (HCC-2998 colon) was greater than 100 µM, the TGI (HCC-2998 colon) was greater than 100 µM and the GI50 (LOX IMVI melanoma) was 66.6 µM. It also gave a TGI (LOX IMVI melanoma) greater than 100 µM, a GI50 (NCI-H226 lung) greater than 100 µM and a TGI (NCI-H226 lung) greater than 100 µM. It also gave a GI50 (SN12C renal) greater than 100 µM, a TGI (SN12C renal) greater than 100 µM and a GI50 (SK-OV-3 ovarian) greater than 100 µM. The TGI (SK-OV-3 ovarian) was greater than 100 µM, the GI50 (UO-31 renal) was greater than 100 µM and the TGI (UO-31 renal) was greater than 100 µM. It also gave a GI50 (HT29 colon) greater than 100 µM, a TGI (HT29 colon) greater than 100 µM and a GI50 (HCT-116 colon) of 41.9 µM. It also gave a TGI (HCT-116 colon) greater than 100 µM, a GI50 (K-562 leukemia) of 3.9 µM and a TGI (K-562 leukemia) greater than 100 µM. For the same molecule, the GI50 (SK-MEL-5 melanoma) was greater than 100 µM, the TGI (SK-MEL-5 melanoma) was greater than 100 µM and the GI50 (U251 CNS) was greater than 100 µM. It also gave a TGI (U251 CNS) greater than 100 µM, a GI50 (HOP-92 NSCLC) greater than 100 µM and a TGI (HOP-92 NSCLC) greater than 100 µM. The GI50 (HOP-62 NSCLC) was greater than 100 µM, the TGI (HOP-62 NSCLC) was greater than 100 µM and the GI50 (SF-295 CNS) was greater than 100 µM. It also gave a TGI (SF-295 CNS) greater than 100 µM, a GI50 (MOLT-4 leukemia) of 23.8 µM and a TGI (MOLT-4 leukemia) greater than 100 µM.
